Experiments:
BACE2 = target: T1, BACE2 (Homo sapiens, UniProt Q9Y5Z0); experiment: BACE2 biochemical FRET based assay; conditions: recombinant BACE2, 450 minutes at room temperature, pH 5.0; for IC50: read-out: Biochemical FRET based assay pIC50 (converted)
T1 construct: recombinant BACE2 protein in a final concentration of 0.4 μg/ml
T1 sequence (Q9Y5Z0 63-518): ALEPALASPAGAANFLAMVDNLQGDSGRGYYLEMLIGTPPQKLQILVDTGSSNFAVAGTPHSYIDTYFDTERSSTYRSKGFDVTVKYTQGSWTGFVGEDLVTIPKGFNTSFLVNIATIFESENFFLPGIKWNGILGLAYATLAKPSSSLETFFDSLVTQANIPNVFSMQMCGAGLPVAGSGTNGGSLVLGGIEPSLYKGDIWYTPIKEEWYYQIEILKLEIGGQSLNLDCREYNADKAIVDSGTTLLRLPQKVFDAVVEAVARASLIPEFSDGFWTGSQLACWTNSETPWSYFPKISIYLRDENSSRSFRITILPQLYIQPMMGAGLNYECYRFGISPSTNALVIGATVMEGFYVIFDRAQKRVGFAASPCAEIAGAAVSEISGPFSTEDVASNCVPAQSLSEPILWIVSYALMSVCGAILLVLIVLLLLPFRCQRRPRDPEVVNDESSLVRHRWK
Source text: BACE2 Biochemical FRET Based Assay
(§1) This assay is a Fluorescence Resonance Energy Transfer Assay (FRET) based assay. The substrate for this assay contains the ‘Swedish’ Lys-Met/Asn-Leu mutation of the amyloid precursor protein (APP) beta-site APP-cleaving enzyme cleavage site. This substrate also contains two fluorophores: (7-methoxycoumarin-4-yl) acetic acid (Mca) is a fluorescent donor with excitation wavelength at 320 nm and emission at 405 nm and 2,4-Dinitrophenyl (Dnp) is a proprietary quencher acceptor. […] Upon cleavage by the beta-site APP-cleaving enzyme, the fluorophore Mca is separated from the quenching group Dnp, restoring the full fluorescence yield of the donor. The increase in fluorescence is linearly related to the rate of proteolysis.
Briefly in a 384-well format recombinant BACE2 protein in a final concentration of 0.4 μg/ml is incubated for 450 minutes at room temperature with 10 μM substrate in incubation buffer (50 mM Citrate buffer pH 5.0, 0.05% PEG, no DMSO) in the absence or presence of compound. Next the amount of proteolysis is directly measured by fluorescence measurement at T=0 and T=450 (excitation at 320 nm and emission at 405 nm). Results are expressed in RFU (Relative Fluorescence Units), as difference between T450 and T0.
(§2) A best-fit curve is fitted by a minimum sum of squares method to the plot of % Controlmin versus compound concentration. From this an IC50 value (inhibitory concentration causing 50% inhibition of activity) can be obtained.

BACE1 = target: T2, BACE1 (Homo sapiens, UniProt P56817); experiment: BACE1 biochemical FRET based assay; conditions: Method 1: recombinant BACE1 1 μg/ml, 120 min at room temperature, pH 5.0; for IC50: read-out: Biochemical FRET based assay pIC50 (converted)
T2 construct: recombinant BACE1 protein in a final concentration of 1 μg/ml
T2 sequence (P56817 46-501): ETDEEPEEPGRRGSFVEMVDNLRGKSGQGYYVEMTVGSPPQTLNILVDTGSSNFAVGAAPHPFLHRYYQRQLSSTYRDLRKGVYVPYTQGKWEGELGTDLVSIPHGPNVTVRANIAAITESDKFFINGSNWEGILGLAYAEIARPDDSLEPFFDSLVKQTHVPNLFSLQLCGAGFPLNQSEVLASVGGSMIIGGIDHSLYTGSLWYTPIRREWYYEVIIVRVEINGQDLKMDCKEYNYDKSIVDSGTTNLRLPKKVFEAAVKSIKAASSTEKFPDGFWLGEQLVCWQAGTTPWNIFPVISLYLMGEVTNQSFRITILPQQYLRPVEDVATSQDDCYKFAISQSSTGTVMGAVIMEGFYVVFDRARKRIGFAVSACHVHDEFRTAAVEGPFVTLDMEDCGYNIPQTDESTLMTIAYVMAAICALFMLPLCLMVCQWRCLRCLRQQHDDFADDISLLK
Source text: BACE1 Biochemical Fret Based Assay
as §1, with “this assay is an APP derived 13 amino acids peptide that contains the” for “this assay contains the”, “cleavage by BACE1, the fluorophore” for “cleavage by the beta-site APP-cleaving enzyme, the fluorophore”
Briefly in a 384-well format recombinant BACE1 protein in a final concentration of 1 μg/ml is incubated for 120 minutes at room temperature with 10 μm substrate in incubation buffer (40 mM Citrate buffer pH 5.0, 0.04% PEG, 4% DMSO) in the absence or presence of compound. Next the amount of proteolysis is directly measured by fluorescence measurement at T=0 and T=120 (excitation at 320 nm and emission at 405 nm). Results are expressed in RFU (Relative Fluorescence Units), as difference between T120 and T0.
as §2

[1] = system: Abeta 1-42 produced and secreted into the medium of human neuroblastoma SKNBE2 cells; experiment: Cellular αLisa assay in SKNBE2 cells; assay type: cell-based; conditions: human neuroblastoma SKNBE2 cells expressing hAPP695, 18 hours incubation; for IC50: Homo sapiens, SKNBE2, 18 h, read-out: Cellular αLisa assay in SKNBE2 cells Abeta 42 pIC50 (converted)
Protocol: Cellular αLisa Assay in SKNBE2 Cells
In two αLisa assays the levels of Abeta 1-42 produced and secreted into the medium of human neuroblastoma SKNBE2 cells are quantified. The assay is based on the human neuroblastoma SKNBE2 expressing the wild type Amyloid Precursor Protein (hAPP695). The compounds are diluted and added to these cells, incubated for 18 hours and then measurements of Abeta 1-42 are taken. Abeta 1-42 are measured by sandwich αLisa. αLisa is a sandwich assay using biotinylated antibody AbN/25 attached to streptavidin coated beads and antibody cAb42/26 conjugated acceptor beads for the detection of Abeta 1-42 respectively. In the presence of Abeta 1-42, the beads come into close proximity. The excitation of the donor beads provokes the release of singlet oxygen molecules that trigger a cascade of energy transfer in the acceptor beads, resulting in light emission. Light emission is measured after 1 hour incubation (excitation at […] and emission at 615 nm).
as §2

Row | Structure (SMILES) | Biochemical FRET based assay pIC50 (BACE2) | Biochemical FRET based assay pIC50 (BACE1) | Cellular αLisa assay in SKNBE2 cells Abeta 42 pIC50 [1] | IC50 (BACE2) [nM] | IC50 (BACE1) [nM] | IC50 [1] [nM]
1 | CC1OCC2(c3cc(NC(=O)c4ccc(C#N)cn4)cc(F)c3F)N=C(N)C(C)(C#N)CC12 (single isomer, unassigned) [33c] | – | – | 7.37 | 468 | 35.5 | –
2 | C[C@]1(C#N)C[C@@H]2[C@@H](CF)OC[C@]2(c2cc(NC(=O)c3ccc(C#N)cn3)ccc2F)N=C1N [24b] | – | – | – | 158 | 14.5 | 31.6
3 | C[C@]1(C#N)C[C@H]2[C@H](C(F)(F)F)OC[C@@]2(c2cc(NC(=O)c3ncc(Cl)cn3)ccc2F)N=C1N [8d] | 5.08 | 5.37 | 5.1 | – | – | –
4 | C[C@@]1(C#N)C[C@@H]2[C@@H](CF)OC[C@]2(c2cc(NC(=O)c3cnc(-n4cncn4)cn3)ccc2F)N=C1N [23a] | – | – | – | 355 | 12.3 | 25.7
5 | CC(F)(F)[C@H]1OC[C@]2(c3cc(NC(=O)c4ccc(C#N)cn4)ccc3F)N=C(N)[C@](C)(C#N)C[C@H]12 [17a] | – | – | – | 21.4 | 1.58 | 2.14
6 | CC1OCC2(c3cc(NC(=O)c4ccc(OC(F)F)cn4)ccc3F)N=C(N)C(C)(C#N)CC12 (single isomer, unassigned) [35a] | – | – | 8.32 | 83.2 | 5.62 | –
7 | CC1OCC2(c3cc(NC(=O)c4ccc(OC(F)F)cn4)ccc3F)N=C(N)C(C)(C#N)CC12 (single isomer, unassigned) [35b] | – | – | 6.11 | > 10000 | 741 | –
8 | CC1OCC2(c3cc(NC(=O)c4cnc(-n5cncn5)cn4)cc(F)c3F)N=C(N)C(C)(C#N)CC12 (single isomer, unassigned) [32a] | – | – | 7.51 | 347 | 19.1 | –
9 | CC1OCC2(c3cc(NC(=O)c4ccc(C#N)cn4)cc(F)c3F)N=C(N)C(C)(C#N)CC12 (single isomer, unassigned) [33a] | – | – | 5.14 | > 10000 | 7590 | –
10 | COc1cnc(C(=O)Nc2ccc(F)c([C@@]34CO[C@@H](C)[C@@H]3C[C@](C)(S(C)(=O)=O)C(N)=N4)c2)cn1 (single isomer, unassigned) [13c] | 5.41 | 6.05 | 6.21 | – | – | –
11 | Cl.NC1=N[C@@]2(c3cc(NC(=O)c4ccc(F)cn4)ccc3F)CO[C@H](C(F)(F)F)[C@H]2CC1 [12c] | 7.26 | 7.95 | 8.13 | – | – | –
12 | CC1OCC2(c3cc(NC(=O)c4ccc(C#N)cn4)cc(F)c3F)N=C(N)C(C)(C#N)CC12 (single isomer, unassigned) [33b] | – | – | 7.81 | 44.7 | 5.5 | –
13 | CC1(C#N)CC2C(C(F)(F)F)OCC2(c2cc(NC(=O)c3cnc(-n4cncn4)cn3)ccc2F)N=C1N (single isomer, unassigned) [34b] | – | – | 5.31 | > 10000 | 1020 | –
14 | CC1OCC2(c3cc(NC(=O)c4cnc(-n5cncn5)cn4)cc(F)c3F)N=C(N)C(C)(C#N)CC12 (single isomer, unassigned) [32b] | – | – | 5.97 | 9550 | 309 | –
15 | COc1cnc(C(=O)Nc2ccc(F)c([C@]34CO[C@H](C)[C@H]3C[C@](C)(S(C)(=O)=O)C(N)=N4)c2)cn1 (single isomer, unassigned) [13d] | <5 | <5 | <5.05 | – | – | –
16 | C[C@]1(C#N)C[C@@H]2[C@@H](C(F)(F)F)OC[C@]2(c2cc(NC(=O)c3ccc(C#N)cn3)ccc2F)N=C1N [3f] | 6.88 | 8.33 | 8.1 | – | – | –
17 | CC1(C#N)CC2C(C(F)(F)F)OCC2(c2cc(NC(=O)c3cnc(-n4cncn4)cn3)ccc2F)N=C1N (single isomer, unassigned) [34a] | – | – | 7.57 | 263 | 6.31 | –

Continued, values first:

Row | Biochemical FRET based assay pIC50 (BACE2) | Biochemical FRET based assay pIC50 (BACE1) | Cellular αLisa assay in SKNBE2 cells Abeta 42 pIC50 [1] | IC50 (BACE2) [nM] | IC50 (BACE1) [nM] | IC50 [1] [nM] | Structure (SMILES)
18 | <5 | 5.76 | 5.8 | – | – | – | C[C@@H]1OC[C@@]2(c3cc(NC(=O)c4cnc(OCF)cn4)ccc3F)N=C(N)[C@@](C)(C#N)C[C@@H]12 (single isomer, unassigned) [9c]
19 | – | – | 7.57 | 158 | 15.5 | – | CC1OCC2(c3cc(NC(=O)c4cnc(OCF)cn4)cc(F)c3F)N=C(N)C(C)(C#N)CC12 (single isomer, unassigned) [31c]
20 | <5 | 5.12 | 5.14 | – | – | – | C[C@@H]1OC[C@@]2(c3cc(NC(=O)c4ccc(C#N)cn4)ccc3F)N=C(N)[C@](C)(C#N)C[C@@H]12 [6c]
21 | – | – | – | 74.1 | 4.79 | 13.2 | C[C@@]1(C#N)C[C@@H]2[C@@H](CF)OC[C@]2(c2cc(NC(=O)c3cnc(OCF)cn3)ccc2F)N=C1N [22a]
22 | 6.17 | 7.06 | 7.46 | – | – | – | COc1cnc(C(=O)Nc2ccc(F)c([C@]34CO[C@H](C)[C@H]3C[C@](C)(C#N)C(N)=N4)c2)cn1 [5b]
23 | – | – | 7.15 | 2400 | 66.1 | – | CC1OCC2(c3cc(NC(=O)c4cnc(OCF)cn4)cc(F)c3F)N=C(N)C(C)(C#N)CC12 (single isomer, unassigned) [31a]
24 | <5 | 5.97 | 5.32 | – | – | – | C[C@]1(C#N)C[C@H]2[C@H](C(F)(F)F)OC[C@@]2(c2cc(NC(=O)c3cnc(OCF)cn3)ccc2F)N=C1N [7c]
25 | – | – | <5.05 | > 10000 | 8710 | – | CC1OCC2(c3cc(NC(=O)c4cnc(OCF)cn4)cc(F)c3F)N=C(N)C(C)(C#N)CC12 (single isomer, unassigned) [31b]
26 | – | – | 7.74 | 141 | 8.91 | – | CC1(C#N)CC2C(C(F)F)OCC2(c2cc(NC(=O)c3cnc(OCF)cn3)ccc2F)N=C1N (single isomer, unassigned) [25a]

From patent US20200062773A1, “4,4a,5,7-TETRAHYDRO-3H-FURO[3,4-b]PYRIDINYL COMPOUNDS” (Janssen Pharmaceutlca NV, priority 2016, published 2020)
